17 compounds from patent US10239832B2, “N-(1-hydroxy-3-(pyrrolidinyl)propan-2-yl)pyrrolidine-3-carboxamide derivatives as glucosylceramide synthase inhibitors” (BIOMARIN PHARMACEUTICAL INC., priority 2013, dated 2019) can be followed below.

A word on the pIC50: it is the negative decadic logarithm of the IC50, by convention in mol/L.

The target of the test is T1, GCS (Canis lupus familiaris, UniProt A0A8I3MXG6).
T1 construct: endogenous in cells; host or cells: MDCK (Madin-Darby canine kidney) cells, whole-cell lysate
T1 sequence (A0A8I3MXG6 1-394): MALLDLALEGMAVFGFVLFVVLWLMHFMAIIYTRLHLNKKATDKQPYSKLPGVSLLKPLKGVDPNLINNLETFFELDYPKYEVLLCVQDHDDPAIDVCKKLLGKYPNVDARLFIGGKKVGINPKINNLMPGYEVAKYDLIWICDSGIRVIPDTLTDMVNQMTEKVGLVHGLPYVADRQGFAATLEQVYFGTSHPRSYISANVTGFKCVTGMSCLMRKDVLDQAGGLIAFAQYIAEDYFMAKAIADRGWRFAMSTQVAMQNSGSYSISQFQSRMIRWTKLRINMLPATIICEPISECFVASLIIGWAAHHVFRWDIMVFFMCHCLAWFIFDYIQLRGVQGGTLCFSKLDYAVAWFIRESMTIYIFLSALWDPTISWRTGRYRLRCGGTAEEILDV
The test can be described thus: GCS enzymatic assay (MDCK cell lysate, NBD-ceramide to glucosylceramide, LC/MS). In kind it is biochemical, canine. The conditions noted are these: Table 2, the table does not say which of the assays; for Data Range (% inhibition): class symbols D, E, F, NA (not active); for pIC50: class symbols A, B, C, read-out: Data Range (IC50 values). The gist of the method:
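IC50 or percent inhibition came from LC/MS/MS (ESI+, MRM) of NBD-ceramide and glucosylceramide, with tolbutamide as internal standard. The reaction used MDCK (canine) cell lysate as the enzyme source and was ended with acetonitrile. Mock wells received 0.1% DMSO.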

pIC50: −log10 of the molar value.

Take `O=C(N[C@H](CN1CCCC1)[C@H](O)c1ccc2c(c1)OCCO2)[C@@H]1CCN(c2nc3c(s2)CCCC3)C1` [Compound 36, (R)-N-((1R,2R)-1-(2,3-dihydrobenzo[b][1,4]dioxin-6-yl)-1-hydroxy-3-(pyrrolidin-1-yl)propan-2-yl)-1-(4,5,6,7-tetrahydrobenzo[d]thiazol-2-yl)pyrrolidine-3-carboxamide]: the “Data Range (% inhibition)” value is on record as “F (1-49% (or less than 50%))”.
As for `O=C(N[C@H](CN1CCCC1)[C@H](O)c1ccc2c(c1)OCCO2)C1CCN(c2nc3c(s2)CCCC3)C1` (stereo partly drawn) [Compound 36F, N-((1R,2R)-1-(2,3-dihydrobenzo[b][1,4]dioxin-6-yl)-1-3-hydroxy-(pyrrolidin-1-yl)propan-2-yl)-1-(4,5,6,7-tetrahydrobenzo[d]thiazol-2-yl)pyrrolidine-3-carboxamide], the “Data Range (% inhibition)” value is recorded as “F (1-49% (or less than 50%))”.
As for `O=C(N[C@H](CN1CCCC1)[C@H](O)c1ccc2c(c1)OCCO2)[C@H]1CCN(c2nc3c(s2)CCCC3)C1` [Compound 36G, (S)-N-((1R,2R)-1-(2,3-dihydrobenzo[b][1,4]dioxin-6-yl)-1-hydroxy-3-(pyrrolidin-1-yl)propan-2-yl)-1-(4,5,6,7-tetrahydrobenzo[d]thiazol-2-yl)pyrrolidine-3-carboxamide], the “Data Range (% inhibition)” value is “NA (not active—a negative value was generated for % inhibition)”.
For the compound `O=C(N[C@H](CN1CCCCC1)[C@H](O)c1ccc2c(c1)OCCO2)[C@@H]1CCN(c2ccc(Cl)cc2)C1` [Compound 43, (R)-1-(4-chlorophenyl)-N-((1R,2R)-1-(2,3-dihydrobenzo[b][1,4]dioxin-6-yl)-1-hydroxy-3-(piperidin-1-yl)propan-2-yl)pyrrolidine-3-carboxamide], the “Data Range (% inhibition)” value is “F (1-49% (or less than 50%))”.
Turning to `O=C(N[C@H](CN1CCCCC1)[C@H](O)c1ccc2c(c1)OCCO2)C1CCN(c2ccc(Cl)cc2)C1` (stereo partly drawn) [Compound 43D, 1-(4-chlorophenyl)-N-((1R,2R)-1-(2,3-dihydrobenzo[b][1,4]dioxin-6-yl)-1-hydroxy-3-(piperidin-1-yl)propan-2-yl)pyrrolidine-3-carboxamide], the “Data Range (% inhibition)” value is given as “F (1-49% (or less than 50%))”.
Consider `O=C(N[C@H](CN1CCCCC1)[C@H](O)c1ccc2c(c1)OCCO2)[C@H]1CCN(c2ccc(Cl)cc2)C1` [Compound 43E, (S)-1-(4-chlorophenyl)-N-((1R,2R)-1-(2,3-dihydrobenzo[b][1,4]dioxin-6-yl)-1-hydroxy-3-(piperidin-1-yl)propan-2-yl)pyrrolidine-3-carboxamide], for which the “Data Range (% inhibition)” value was “F (1-49% (or less than 50%))”.
Take `O=C(N[C@H](CN1CCCCC1)[C@H](O)c1cc(F)c2c(c1)OCCO2)[C@@H]1CCN(c2ccc(Cl)cc2)C1` [Compound 44, (R)-1-(4-chlorophenyl)-N-((1R,2R)-1-(8-fluoro-2,3-dihydrobenzo[b][1,4]dioxin-6-yl)-1-hydroxy-3-(piperidin-1-yl)propan-2-yl)pyrrolidine-3-carboxamide]: the “Data Range (% inhibition)” value is given as “F (1-49% (or less than 50%))”.
With `O=C(N[C@H](CN1CCCCC1)[C@H](O)c1cc(F)c2c(c1)OCCO2)[C@H]1CCN(c2ccc(Cl)cc2)C1` [Compound 44C, (S)-1-(4-chlorophenyl)-N-((1R,2R)-1-(8-fluoro-2,3-dihydrobenzo[b][1,4]dioxin-6-yl)-1-hydroxy-3-(piperidin-1-yl)propan-2-yl)pyrrolidine-3-carboxamide], the “Data Range (% inhibition)” value is “NA (not active—a negative value was generated for % inhibition)”.
`O=C(N[C@H](CN1CCCC1)[C@H](O)c1ccc(OC2CCOCC2)c(Cl)c1)[C@@H]1CCN(c2ccc(Cl)cc2)C1` [Compound 45, (R)-N-((1R,2R)-1-(3-chloro-4-((tetrahydro-2H-pyran-4-yl)oxy)phenyl)-1-hydroxy-3-(pyrrolidin-1-yl)propan-2-yl)-1-(4-chlorophenyl)pyrrolidine-3-carboxamide]: the pIC50 was 7.52 to 9.00.
`O=C(N[C@H](CN1CCCC1)[C@H](O)c1ccc(OC2CCOCC2)c(Cl)c1)[C@H]1CCN(c2ccc(Cl)cc2)C1` [Compound 45A, (S)-N-((1R,2R)-1-(3-chloro-4-((tetrahydro-2H-pyran-4-yl)oxy)phenyl)-1-hydroxy-3-(pyrrolidin-1-yl)propan-2-yl)-1-(4-chlorophenyl)pyrrolidine-3-carboxamide]: the “Data Range (% inhibition)” value is on record as “F (1-49% (or less than 50%))”.
For the compound `O=C(N[C@H](CN1CCCCC1)[C@H](O)c1ccc2c(c1)OCCO2)[C@@H]1CCN(c2ccc(F)cc2)C1` [Compound 46, (R)-N-((1R,2R)-1-(2,3-dihydrobenzo[b][1,4]dioxin-6-yl)-1-hydroxy-3-(piperidin-1-yl)propan-2-yl)-1-(4-fluorophenyl)pyrrolidine-3-carboxamide], the “Data Range (% inhibition)” value was “F (1-49% (or less than 50%))”.
Regarding `O=C(N[C@H](CN1CCCCC1)[C@H](O)c1ccc2c(c1)OCCO2)C1CCN(c2ccc(F)cc2)C1` (stereo partly drawn) [Compound 46A, N-((1R,2R)-1-(2,3-dihydrobenzo[b][1,4]dioxin-6-yl)-1-hydroxy-3-(piperidin-1-yl)propan-2-yl)-1-(4-fluorophenyl)pyrrolidine-3-carboxamide], the “Data Range (% inhibition)” value is recorded as “F (1-49% (or less than 50%))”.
As to `O=C(N[C@H](CN1CCCCC1)[C@H](O)c1ccc2c(c1)OCCO2)[C@H]1CCN(c2ccc(F)cc2)C1` [Compound 46B, (S)-N-((1R,2R)-1-(2,3-dihydrobenzo[b][1,4]dioxin-6-yl)-1-hydroxy-3-(piperidin-1-yl)propan-2-yl)-1-(4-fluorophenyl)pyrrolidine-3-carboxamide], the “Data Range (% inhibition)” value is reported as “NA (not active—a negative value was generated for % inhibition)”.
For `O=C(N[C@H](CN1CCC1)[C@H](O)c1cc(F)c2c(c1)OCCO2)[C@@H]1CCN(c2ccc3cc(F)ccc3c2)C1` [Compound 47, (R)-N-((1R,2R)-3-(azetidin-1-yl)-1-(8-fluoro-2,3-dihydrobenzo[b][1,4]dioxin-6-yl)-1-hydroxypropan-2-yl)-1-(6-fluoronaphthalen-2-yl)pyrrolidine-3-carboxamide], the pIC50 is 7.52 to 9.00.
For `O=C(N[C@H](CN1CCC1)[C@H](O)c1cc(F)c2c(c1)OCCO2)C1CCN(c2ccc3cc(F)ccc3c2)C1` (stereo partly drawn) [Compound 47A, N-((1R,2R)-3-(azetidin-1-yl)-1-(8-fluoro-2,3-dihydrobenzo[b][1,4]dioxin-6-yl)-1-hydroxypropan-2-yl)-1-(6-fluoronaphthalen-2-yl)pyrrolidine-3-carboxamide], the pIC50 is 7.52 to 9.00.
Turning to `O=C(N[C@H](CN1CCC1)[C@H](O)c1cc(F)c2c(c1)OCCO2)[C@H]1CCN(c2ccc3cc(F)ccc3c2)C1` [Compound 47B, (S)-N-((1R,2R)-3-(azetidin-1-yl)-1-(8-fluoro-2,3-dihydrobenzo[b][1,4]dioxin-6-yl)-1-hydroxypropan-2-yl)-1-(6-fluoronaphthalen-2-yl)pyrrolidine-3-carboxamide], the pIC50 was 7.00 to 7.52.
`O=C(N[C@H](CN1CCCC1)[C@H](O)c1cc(F)c2c(c1)OCCO2)[C@@H]1CCN(c2ccccn2)C1` [Compound 48, (R)-N-((1R,2R)-1-(8-fluoro-2,3-dihydrobenzo[b][1,4]dioxin-6-yl)-1-hydroxy-3-(pyrrolidin-1-yl)propan-2-yl)-1-(pyridin-2-yl)pyrrolidine-3-carboxamide]: the negative logarithm of the IC50 (pIC50) was 7.52 to 9.00.
